According to ChEMBL document CHEMBL1201862, “PubChem BioAssay data set” (2004):
Active and inactive are the calls of the source. For most assays here, no stated cut-off is given here; in the data, actives have a measured EC50 and inactives only a lower limit.

Legend:
[1] = target: T1, Replicative DNA helicase DnaB (Mycobacterium tuberculosis, UniProt P9WMR3); test: DnaB intein splicing inhibitors, dose response, biochemical, cell-free fluorescence (AID 449749); type: functional
T1 sequence (P9WMR3 whole entry): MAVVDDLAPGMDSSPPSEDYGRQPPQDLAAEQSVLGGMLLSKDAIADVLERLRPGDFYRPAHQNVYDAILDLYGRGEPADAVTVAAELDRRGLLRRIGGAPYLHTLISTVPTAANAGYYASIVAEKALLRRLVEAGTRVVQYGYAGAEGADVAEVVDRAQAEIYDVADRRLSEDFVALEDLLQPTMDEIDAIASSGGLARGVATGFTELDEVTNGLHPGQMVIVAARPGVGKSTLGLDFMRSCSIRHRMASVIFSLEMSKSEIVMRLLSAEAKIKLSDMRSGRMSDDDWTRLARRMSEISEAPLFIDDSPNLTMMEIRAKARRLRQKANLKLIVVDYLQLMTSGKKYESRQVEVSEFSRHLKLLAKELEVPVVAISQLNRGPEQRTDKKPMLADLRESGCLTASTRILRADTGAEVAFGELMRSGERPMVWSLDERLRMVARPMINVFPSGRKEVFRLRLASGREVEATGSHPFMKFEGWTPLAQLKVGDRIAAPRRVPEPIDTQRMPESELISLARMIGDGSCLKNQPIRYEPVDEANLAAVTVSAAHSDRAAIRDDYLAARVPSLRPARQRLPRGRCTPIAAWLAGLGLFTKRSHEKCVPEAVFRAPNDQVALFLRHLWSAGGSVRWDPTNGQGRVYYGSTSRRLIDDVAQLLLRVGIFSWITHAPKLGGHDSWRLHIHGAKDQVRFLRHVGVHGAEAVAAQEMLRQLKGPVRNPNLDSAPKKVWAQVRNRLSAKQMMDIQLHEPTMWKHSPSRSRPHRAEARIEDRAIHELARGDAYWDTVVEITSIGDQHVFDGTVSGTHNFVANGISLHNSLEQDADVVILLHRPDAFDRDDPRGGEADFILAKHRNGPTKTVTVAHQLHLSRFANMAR

Protein RecA = target: T2, Protein RecA (Mycobacterium tuberculosis, UniProt P9WHJ3); test: Fluorescence Cell-Free Homogeneous Dose Retest to Identify Inhibitors of RecA-Intein Splicing Activity. [Related pubchem assays (depositor defined):AID2097, AID2223, AID489010, AID492950]; type: functional
T2 sequence (P9WHJ3 whole entry): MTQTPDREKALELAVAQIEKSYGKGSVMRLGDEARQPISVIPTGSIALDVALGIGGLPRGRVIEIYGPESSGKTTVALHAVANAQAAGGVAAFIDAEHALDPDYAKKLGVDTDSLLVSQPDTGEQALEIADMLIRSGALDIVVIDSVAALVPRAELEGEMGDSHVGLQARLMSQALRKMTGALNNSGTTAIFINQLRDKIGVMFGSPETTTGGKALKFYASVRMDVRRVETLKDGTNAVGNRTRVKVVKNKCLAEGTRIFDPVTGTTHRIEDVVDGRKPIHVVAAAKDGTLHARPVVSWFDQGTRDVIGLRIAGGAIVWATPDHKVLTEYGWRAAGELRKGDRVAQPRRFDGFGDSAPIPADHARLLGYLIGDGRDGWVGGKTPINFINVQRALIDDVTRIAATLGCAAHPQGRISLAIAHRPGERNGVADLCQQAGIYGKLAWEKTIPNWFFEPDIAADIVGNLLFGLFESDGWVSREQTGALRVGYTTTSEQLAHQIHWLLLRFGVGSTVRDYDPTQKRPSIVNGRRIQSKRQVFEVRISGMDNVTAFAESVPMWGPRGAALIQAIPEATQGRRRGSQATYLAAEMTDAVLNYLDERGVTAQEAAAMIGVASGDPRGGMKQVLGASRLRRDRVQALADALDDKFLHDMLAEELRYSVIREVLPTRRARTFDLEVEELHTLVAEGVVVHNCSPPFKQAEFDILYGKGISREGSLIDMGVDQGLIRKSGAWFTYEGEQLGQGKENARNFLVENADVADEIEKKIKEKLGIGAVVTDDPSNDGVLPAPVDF

[2] = Trypanosoma cruzi growth suppression in host cells – NIH3T3 host cells, beta-gal luminescence, confirmation (AID 2044); type: functional, cell-based;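 further: intracellular parasites grown in NIH/3T3 mouse fibroblasts as host cells; luminescent beta-galactosidase reporter signal from transgenic T. cruzi replicating inside host cells; inhibitors lower the luminescence signal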
[3] = NIH3T3 cell viability loss – ATP luminescence, mouse fibroblasts, counter-screen, dose response (AID 2010); type: functional, cell-based;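 further: cells exposed to compound for about 90 hours before reading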
[4] = test system: Streptococcus sp. 'group A'; test: Streptococcus pyogenes SK(-)GAS viability under kanamycin – luminescence, BacTiterGlo, confirmation, counter-screen for streptokinase expression inhibitor project, dose response (AID 1900); type: functional, organism-based
Streptococcus = test: GAS UMAA2166 growth inhibition – luminescence, BacTiterGlo, counter-screen for streptokinase expression inhibitor project, dose response (AID 1915); type: functional, organism-based;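 further: potency for reduction of bacterial viability or growth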
Cytochrome P450 2C9 = Cytochrome P450 2C9 (Homo sapiens, UniProt P11712)
Chain of Cytochrome P450 2C9 (P11712 whole entry): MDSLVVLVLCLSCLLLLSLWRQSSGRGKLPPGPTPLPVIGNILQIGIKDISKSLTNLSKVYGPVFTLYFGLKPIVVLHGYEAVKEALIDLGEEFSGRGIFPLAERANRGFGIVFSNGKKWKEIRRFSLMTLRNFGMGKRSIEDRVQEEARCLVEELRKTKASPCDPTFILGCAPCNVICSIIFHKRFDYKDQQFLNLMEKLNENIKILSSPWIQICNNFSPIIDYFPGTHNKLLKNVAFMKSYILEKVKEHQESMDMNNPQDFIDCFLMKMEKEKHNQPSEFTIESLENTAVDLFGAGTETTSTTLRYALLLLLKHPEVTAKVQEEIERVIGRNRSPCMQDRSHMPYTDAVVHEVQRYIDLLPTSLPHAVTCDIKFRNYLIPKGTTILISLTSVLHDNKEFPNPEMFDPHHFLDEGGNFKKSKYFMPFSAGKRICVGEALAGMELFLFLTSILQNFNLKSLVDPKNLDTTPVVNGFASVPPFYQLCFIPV

Structure (SMILES) | EC50 (Protein RecA) | EC50 [2] | EC50 [3] | other results
FC(F)(F)c1cccc(Oc2nc(-c3ccccc3)nnc2C(F)(F)F)c1 | 0.76 µM (active) |  |  | AC50 [1]: 2.06 µM (active)
CCC1C(=O)N(c2nc(C)cc(C)n2)N=C1C (configuration not stated) | 3.3 µM (active) |  |  | AC50 [1]: 8.34 µM (active)
CC1=NN(Cc2ccccc2)C(=O)C1C(c1ccncc1)C(C#N)C#N (configuration not stated) | 3.52 µM (active) |  |  | AC50 [1]: 9.46 µM (active)
Cc1ccn2c(Nc3ccccc3C)c(-c3ccncc3)nc2c1 |  | 0.56 µM (active) | > 60 µM (not active) | 
Cc1cc(N2C(=O)C(O)=C(C(=O)c3cc4ccccc4o3)C2c2cccc(Cl)c2)no1 (configuration not stated) |  |  |  | EC50 [4]: 2.09 µM (active); EC50 (Streptococcus): 5.36 µM (active)
CC(O)CNc1nc2sc3c(c2c(=O)n1CCc1ccccc1)CCCCC3 (configuration not stated) |  | 1.89 µM (active) | > 60 µM (not active) | 
COc1cc(/C=C/C(=O)OCC(=O)Nc2ccccc2Sc2ccc(Cl)cc2)ccc1O | 3.62 µM (active) |  |  | AC50 [1]: > 380 µM (inactive)
Cc1ccc(N=C(S)c2nc3ccccc3[nH]2)c(C)c1 |  |  |  | EC50 [4]: 2.12 µM (active); EC50 (Streptococcus): > 150 µM (not active)
CN(C)[C@@H]1C(O)=C(C(N)=O)C(=O)[C@]2(O)C(O)=C3C(=O)c4c(O)cccc4[C@@](C)(O)[C@H]3[C@H](O)[C@@H]12 |  |  |  | AC50 (Cytochrome P450 2C9): 5.01 µM (inconclusive)
CCOC(=O)CN1N=C(/C=C/c2ccc(C)cc2)CCC1=O |  |  |  | AC50 (Cytochrome P450 2C9): 28.2 µM (inconclusive)
C#CCOC(=O)c1ccccc1C(=O)n1nnc2ccccc21 | 8.84 µM (active) |  |  | AC50 [1]: 6.81 µM (active)
O=C(CC[S+]([O-])NCc1ccccc1)NCc1ccccc1 (configuration not stated) | > 380 µM (inactive) |  |  | AC50 [1]: > 380 µM (inactive)
Cn1cc(C(=O)c2ccc(Cl)cc2Cl)cc1C(=O)O |  |  |  | AC50 (Cytochrome P450 2C9): 14.1 µM (inconclusive)
Cc1ccc(SCc2ccc(C(=O)Nc3cccc([N+](=O)[O-])c3C)cc2)cc1 |  | 1.67 µM (active) | > 30 µM (not active) | 
O=C(Cn1cnc([N+](=O)[O-])n1)NCc1ccccc1 |  | 0.479 µM (active) | > 60 µM (not active) | 
O=[N+]([O-])c1ccc(N2CCN(S(=O)(=O)c3ccc(Cl)c(Cl)c3)CC2)cc1NCCN1CCOCC1 |  | 1.68 µM (active) | > 60 µM (not active) | 
O=C(NC(=S)NNC(=O)[C@H]1C[C@@H]1c1ccccc1)c1ccc(F)cc1 |  |  |  | EC50 [4]: 0.775 µM (active); EC50 (Streptococcus): 1.87 µM (active)
O=C(NCc1ccc2c(c1)OCO2)c1ccc(N2CCCCCC2)c([N+](=O)[O-])c1 |  | 0.709 µM (active) | > 60 µM (not active) | 
Cc1nc(Nc2nc(O)cc(-c3ccccc3)n2)nc2ccccc12 |  |  |  | EC50 [4]: 4.95 µM (active); EC50 (Streptococcus): 8.02 µM (active)
COc1ccc(Nc2ncc3nc(-c4cccs4)c(=O)n(Cc4cccc(OC)c4)c3n2)cc1 |  |  |  | AC50 (Cytochrome P450 2C9): 39.8 µM (inconclusive)
Cc1cc(C)c(C#N)c(SCc2nnc(-c3ccccc3[N+](=O)[O-])o2)n1 |  | 2.2 µM (active) | > 60 µM (not active) | 
O=c1c2c3c(sc2n(CCN2CCCC2)c(=O)n1Cc1ccco1)CCCCC3 |  | 0.331 µM (active) | > 30 µM (not active) | 
CCN1C(=O)c2c(C)nc3ccccc3c2C1=O | 0.781 µM (active) |  |  | AC50 [1]: 43.4 µM (active)

Structure (SMILES) | EC50 (Protein RecA) | EC50 [2] | EC50 [3] | other results
CN(C)CCC1CCN(c2cc(C#N)c(C#N)cc2[N+](=O)[O-])CC1 |  | 0.345 µM (active) | > 60 µM (not active) | 
CC(C)c1ccc(C(=O)NC(=S)Nc2ccc3[nH]c(O)nc3c2)cc1 |  |  |  | EC50 [4]: 10.2 µM (active); EC50 (Streptococcus): 53.6 µM (active)
CC1CN(c2nc3ccccc3nc2C(C#N)C(=O)OC2CCCCC2)CC(C)O1 (configuration not stated) |  | 1.15 µM (active) | 10.6 µM (active) | 
O=C(CN(c1ccc(Br)cc1)S(=O)(=O)c1ccc(Cl)c([N+](=O)[O-])c1)NCCc1ccccc1 |  | 0.592 µM (active) | > 60 µM (not active) | 
COc1ccc(C(=O)CSc2nc(O)cc(C(F)(F)F)c2C#N)cc1 |  |  |  | EC50 [4]: 3.58 µM (active); EC50 (Streptococcus): 15.4 µM (active)
CN1CCN(C2=C(Cl)C(=O)N(c3ccc(Cl)cc3)C2=O)CC1 | 0.247 µM (active) |  |  | AC50 [1]: 1.07 µM (active)
O=C(NC1CCCC1)C(c1ccncc1)N(Cc1ccco1)C(=O)c1ccc(-c2ccccc2)[nH]1 (configuration not stated) |  | 0.641 µM (active) | > 30 µM (not active) | 
CN1CCc2nc(SCC(=O)Nc3ccc(OC(F)(F)F)cc3)c(C#N)c(-c3cccs3)c2C1 | 2.33 µM (active) |  |  | AC50 [1]: > 380 µM (inactive)
CCOc1ccccc1Oc1coc2cc(OC(=O)c3ccco3)ccc2c1=O | 35.7 µM (active) |  |  | AC50 [1]: > 380 µM (inactive)
N#C/C(=C/N1CCOCC1)c1ccccc1 |  |  |  | AC50 (Cytochrome P450 2C9): 28.2 µM (inconclusive)
CCNc1ncc2nc(-c3cn(C)c4ccccc34)c(=O)n(Cc3ccc(F)cc3)c2n1 |  |  |  | AC50 (Cytochrome P450 2C9): 25.1 µM (inconclusive)
COc1ccc([N+](=O)[O-])cc1NC(=O)COC(=O)C1CC1 |  | > 60 µM (not active) | > 60 µM (inconclusive) | 
O=C(O)CCc1ccc(-c2ccccc2)[nH]1 |  |  |  | AC50 (Cytochrome P450 2C9): 3.16 µM (inconclusive)
CCOC(=O)C1(Cc2ccccc2)CCN(Cc2cnc(N3CCOCC3)s2)CC1 |  | 0.644 µM (active) | > 60 µM (inconclusive) | 
Cc1nc2cnc(OCc3ccccc3)nc2n(Cc2ccc(F)cc2)c1=O |  |  |  | AC50 (Cytochrome P450 2C9): 10 µM (inconclusive)
N#CC1=C(N)Oc2[nH]nc(-c3cccs3)c2C1c1cccnc1 (configuration not stated) | > 380 µM (inactive) |  |  | 
O=C(Nc1nc(-c2ccco2)c(-c2ccco2)s1)c1cnccn1 |  | 5.79 µM (active) | 8.94 µM (active) | 
Cc1cc(C)cc(C(=O)Nc2nc3ccccc3[nH]2)c1 |  |  |  | EC50 [4]: 10.6 µM (active); EC50 (Streptococcus): 7.31 µM (active)
Cn1[nH]c(CSc2ccc(Cl)cc2)cc1=O | 10 µM (active) |  |  | AC50 [1]: 20.2 µM (active)
O=C(N/N=C/c1cc(Br)cc([N+](=O)[O-])c1O)c1ccc(NC(=O)c2ccc(F)cc2)cc1 |  |  |  | EC50 [4]: 2.34 µM (active); EC50 (Streptococcus): 6.54 µM (active)
C/C(CC(=O)Nc1ccccn1)=N\NC(=O)Cc1cccc2ccccc12 | 2.73 µM (active) |  |  | AC50 [1]: 3.54 µM (active)
CCC(=O)N/N=C(\C)CC(=O)Nc1cccc([N+](=O)[O-])c1 | 2.36 µM (active) |  |  | AC50 [1]: 23.4 µM (active)
COc1cccc(-c2cncnc2NCc2ccccc2OC)c1 |  |  |  | AC50 (Cytochrome P450 2C9): 0.631 µM (inconclusive)
